Reference: patent EP1226809B1, “SKIN TEXTURE-IMPROVING AGENTS” (KYOWA HAKKO KOGYO CO., LTD., priority 1999, dated 2001)
Where two headings read alike, the source gives them in different places.

Tests used:
[1] = tested on: collagenase I (MMP-1); settings: 37°C, 4 hours
Experimental: Measurement of collagenase-inhibiting activity was carried out in the following manner according to the method described in Development and Application of Simple Microassay for Collagenase Activity; Nagai, et al., Inflammation, Vol. 4, p. 123-130, Nihon Igakukan (1984).
To 25 µl of a neutralization buffer (0.1 mol/l Tris hydrochloride, pH 7.5, 0.4 mol/l NaCl, 10 mmol/l CaCl2 and 0.04% NaN3) was added 25 µl of fluorescein isothiocyanate (FITC)-labeled collagen I (Cosmo Bio Co.) To the resulting mixture were further added 50 µl of collagenase I (MMP-1) (Cosmo Bio Co.) and a test sample dissolved in 10 µl of the neutralization buffer, followed by reaction at 37°C for 4 hours. To the reaction mixture was added 5 µl of a reaction terminating solution [80 mmol/l o-phenanthroline/50% (v/v) aqueous ethanol] to stop the reaction. To the resulting mixture was added 100 µl of a twice diluted neutralization buffer and the resulting mixture was allowed to stand at 35°C for 60 minutes. After cooling on ice for 5 minutes, 200 µl of 70% (v/v) aqueous ethanol was added to the mixture, followed by vigorous stirring for 5 minutes. The resulting mixture was centrifuged at 15,000 rpm at 4°C for 10 minutes to obtain the supernatant. By using a spectrophotofluorometer, the supernatant was irradiated with excitation light at 495 nm and emission light at 520 nm (A) was measured to determine the amount of decomposed collagen. The collagenase-inhibiting activity was calculated according to equation 4 by using data (B) obtained when purified water was employed in place of collagenase I and data (C) obtained when a neutralization buffer was employed in place of the test sample. Collagenase-inhibiting activity(%) = [(A)-(B)]/[(C)-(B)] × 100 [formula]

[2] = tested on: Human neonate-derived fibroblasts; experiment: Measurement of collagen synthesis-promoting activity on human fibroblasts (3H-glycine incorporation); assay type: cell-based; settings: 300 µmol/l
Experimental: 201-271, Kodansha Scientific (1986).
Human neonate-derived fibroblasts (Sanko Junyaku Co., Ltd.) were suspended in DMEM containing 10% fetal bovine serum [Virology, 8, 396 (1959)] and cultured at 37°C in 5% CO2 to the stationary phase. To the resulting culture were added ^3H-labeled glycine and a test substance, followed by further culturing for 72 hours. After 500 µmol/l phenylmethanesulfonyl fluoride (PMSF) was added to the obtained culture, the cells and the medium were collected, followed by disruption with a sonicator to extract proteins. To the extract were added 100 µmol/l bovine serum albumin (BSA) and 10% trichloroacetic acid (TCA), and the resulting mixture was centrifuged at 3000 rpm for 5 minutes to collect the precipitate. […]
After the reaction mixture was separated by ultrafiltration (molecular weight: 10,000), the radioactivity of the protein fraction in the filtrate (CDP) was measured as the amount of newly synthesized collagen. Then, the radioactivity of the protein fraction which was not filtered (NCDP) was measured, and the collagen synthesis ratio was calculated according to equation 2. The relative collagen synthesis-promoting activity (the change in collagen synthesis) was calculated according to equation 3 as the relative value of the collagen synthesis ratio in the presence of a test substance based on the control. […]

Row | SMILES | Collagenase-inhibiting activity (%) ([1]; 1 µmol/l) | Collagenase-inhibiting activity (%) ([1]; 10 µmol/l) | Collagenase-inhibiting activity (%) ([1]; 100 µmol/l) | Relative collagen synthesis-promoting activity (%) ([2]; after 72 hours of culturing, control = 100) | amount of collagen synthesized ([2]; result in words, compared with control (=100%)) | Collagenase-inhibiting activity (%) ([1]; 1 mmol/l)
1 | Oc1cc(O)c2c(c1)O[C@H](c1ccc(O)c(O)c1)[C@H](O)[C@H]2c1c(O)cc(O)c2c1O[C@H](c1ccc(O)c(O)c1)[C@H](O)[C@H]2c1c(O)cc(O)c2c1O[C@H](c1ccc(O)c(O)c1)[C@H](O)C2 [PC1, epicatechin-(4β→ 8)-epicatechin-(4β→8)-epicatechin] | 17% | 37% | 100% | – | – | –
2 | Oc1cc(O)c2c(c1)O[C@H](c1ccc(O)c(O)c1)[C@H](O)[C@H]2c1c(O)cc(O)c2c1O[C@H](c1ccc(O)c(O)c1)[C@H](O)C2 [PB2, epicatechin-(4β→8)-epicatechin] | – | – | 69.4% | 120.8% | increased | 100%
